The source of these data is US11365227B2, “Peptide and pharmaceutical compositions of same for use as an antimicrobial and in cancer treatment” (UNIVERSITAT DE VALÈNCIA, priority 2017, dated 2022).

Where no end group is shown, it is not given here.

For data set [1], the system named is MDA-MB-231 triple-negative breast cancer cells. The data set is described as follows: MTS cell viability, combined treatments of PaSK with chemotherapeutic agents.
The subject of data set [2] is S. aureus. The data set is described as follows: Transmission electron microscopy of S. aureus cells treated with peptides. Format: cell-based, Staphylococcus aureus subsp. aureus CECT 4013. The following applies: 25 μg/mL, 1 h. How it is done: The samples were prepared in the same way as for scanning electron microscopy, except for the series of graded dehydration with ethanol, in which only the 90° grade was reached. Then the samples were included in resin in 4 steps: ethanol 96°—resin LR-White 2:1 (20 h), ethanol 100°—resin 2:1 (20 h), ethanol 100°—resin 1:2 (20 h) and 100% resin (24 h at 60° C.). After the samples were included in the resin the block was prepared for ultrathin cuts of 60 nm in the equipment Leica UC6 Ultracut Microtome.
Transmission electron microscopy provides high-resolution images which were used to view the ultrastructural damage caused by the peptides inside the bacteria. The cells of S. aureus CECT 4013 were treated with the peptides hBD-3, TcDef3-pep and PaSK at a concentration of 25 μg/mL, for 1 h, and analysed using transmission electron microscopy (FIG. 6). In cells without treatment, an intact cytoplasm membrane (3) and peptidoglycane wall (2) were observed, typical of a Gram+ bacteria as S. aureus, as well as a division septum (1) without malformations, while in treated cells different types of alterations were observed. […] Small size circular structures (9) are observed. These structures show a different electrodensity from cells and lack a cytoplasm membrane and peptidoglycane wall. The biofilm formed by the cells treated with peptides was also observed in the images obtained by transmission electron microscopy (FIG. 7) and it was not observed in the cells treated with human defensin hBD-3 (FIG. 6).

Data set [3] relates to S. aureus. The data set is described as follows: Antimicrobial activity by flow cytometry (SYBR Green / propidium iodide). Format: cell-based, Staphylococcus aureus subsp. aureus CECT 4013. The following applies: 25 μg/mL, 8 h at 37° C., 2 replicates. As for the experimental part: The strain used was CECT 4013 of S. aureus subsp. aureus, publicly accessible deposited in the Spanish Type Culture Collection (CECT).
Starting from cells of S. aureus cultured overnight in a liquid medium LB (peptone 1%, yeast extract 0.5% and NaCl 1%) at 37° C. with stirring, aliquots were obtained in a new liquid medium and allowed to grow until reaching an optical density at 600 nm (OD600) of 0.5, optimum for detection in the flow cytometer. Aliquots were prepared with a concentration of 5×10^6 cfu/100 μL of S. aureus to which were added 10, 15, 20 and 25 μg/mL of PaSK, 25 μg/mL of TcDef3-pep and H2O (negative control), solvent used to dilute the peptides. The mixtures were incubated at 37° C. for 8 h and marked with the fluorochromes SYBR Green (Invitrogen) (25 μL of a SYBR Green 25× solution in H2O) that stains all the cells and propidium iodide (Sigma) (10 μL of propidium iodide 1 mg/mL) that stains dead cells. Finally, the cell death caused by the peptides was analysed by flow cytometry with the equipment BD Facs Verse (Becton Dickinson), from the cell culture and flow cytometry section of the Central Services for Research Support of the University of Valencia. The experiments were performed in duplicate.
The flow cytometer forces cells to pass one by one through a needle, creating a thin line of liquid and detecting how the laser beam (argon emission laser at 488 nm, in the equipment used) interacts with the cells, depending on how the incident light is deviated and the fluorescence emitted by the excited fluorochromes. The results are presented as graphs obtained with the analysis program BD Facs suite v1.0.5.3841 (Becton Dickinson). […] Then, a second graph is obtained with the parameters SSC and FITC (fluorescence parameter indicating the cells containing SYBR Green), to differentiate the cells from the other particles that may be present in the sample. Lastly, a third graph is obtained with the fluorescence parameters FITC and PerCPCy5.5 (indicating the cells stained with propidium iodide) to differentiate the cells that have been stained only by SYBR Green from those stained with propidium iodide, which will be those that have died.
The antimicrobial activity of the peptide PaSK was determined by flow cytometry. […] Therefore, the use of these two fluorochromes provides a method for determining viable cells, quantifying the loss of cell viability from the increase in propidium iodide inside the dead cells.
After incubating the cells of strain CECT 4013 of S. aureus with 25 μg/mL of the peptides TcDef3-pep and PaSK, the percentage of dead cells was determined. […] FIGS. 1A-1D show the graphs corresponding to the fluorescence obtained in the windows of the flow cytometer.

For data set [4], the system named is S. aureus. The data set is described as follows: Scanning electron microscopy of S. aureus cells treated with peptides. The following applies: 25 μg/mL, 1 h. It is filed as cell-based, Staphylococcus aureus subsp. aureus CECT 4013. How it is done: The cells were prepared in the same way as for the flow cytometry technique and the same aliquots and treatments were performed. The samples were incubated at 37° C. for 1 h. The bacteria were fixed with Karnosky (2.5% paraformaldehyde and 0.5 glutaraldehyde) for 2 h at 4° C. After washing (centrifuging and eliminating the supernatant) they were fixed with 2% osmium tetraoxide for another 2 h, washed again and filtered with a 0.2 μm filter. The cells were then dehydrated in graded ethanol series (30°, 50°, 70°, 90°, 100°) for 10 min in each gradation. To carry out the critical point drying, the ethanol was replaced with liquid CO2, the temperature was increased to accelerate evaporation and the pressure was lowered slowly to conserve the exact shape of the bacteria. Finally, shading with gold palladium was performed for 2 min observing the results in the equipment FEG-SEM HITACHI S4800 at 10 Kv.
Scanning electron microscopy provides high-resolution images used to view the damage caused by the peptides to the bacterial membrane. The cells of S. aureus CECT 4013 were treated with the peptides hBD-3, TcDef3-pep and PaSK at a concentration of 25 μg/mL, for 1 h, and analysed using scanning electron microscopy (FIG. 4). In cells without treatment the circular and uniform form typical of S. aureus was observed, with the intact membrane, while in treated cells various types of morphological alterations can be seen. […] With this treatment small circular structures are observed, smaller than the cells of S. aureus.

Data set [5] relates to S. aureus. To be noted: 10 μg/mL; Contreras et al., 2015; cited from earlier work.
Where [6] appears, read: chemotherapeutic agent alone, 72 h, 3 replicates.

Broadly, the EC50 is the concentration giving half of the maximal effect. In the case of `O=c1[nH]cc(F)c(=O)[nH]1` [5-fluorouracyl], the EC50 in data set [1] (setting [6]) worked out at 25.3 ± 4.33 µM.

Turning to `N.N.[Cl][Pt][Cl]` [cisplatin], in data set [1] (setting [6]), the EC50 was determined as 168 ± 53.9 µM.

As for `COc1cccc2c1C(=O)c1c(O)c3c(c(O)c1C2=O)C[C@@](O)(C(=O)CO)C[C@@H]3O[C@H]1C[C@H](N)[C@H](O)[C@H](C)O1` [doxorubicin], the EC50 in data set [1] (Homo sapiens, MDA-MB-231, 72 h) is 0.407 ± 0.033 µM.

As to `CC(=O)O[C@H]1C(=O)[C@@]2(C)[C@H]([C@H](OC(=O)c3ccccc3)[C@]3(O)C[C@H](OC(=O)[C@H](O)[C@@H](NC(=O)c4ccccc4)c4ccccc4)C(C)=C1C3(C)C)[C@]1(OC(C)=O)CO[C@@H]1C[C@@H]2O` [paclitaxel], the EC50 in data set [1] (Homo sapiens, MDA-MB-231, 72 h) turned out to be 0.008 ± 0.005 µM.

“TcDef3-pep: 29 amino acid peptide fragment of Tribolium castaneum defensin 3, SEQ ID NO: 2, disclosed in Contreras et al., 2015 (VNHAACAAHCLLKRKRGGYCNKRRICVCR)”: the “ultrastructural damage, transmission electron microscopy” value in data set [2] was “malformations and bulges in the bacterial membrane”. In addition, the “percentage of dead cells (cytotoxicity)” value in data set [3] is given as ~55%. Moreover, in data set [4], the “biofilm formation, scanning electron microscopy” value is reported as “biofilm produced” and the “morphological alterations, scanning electron microscopy” value was “bulges are observed in the bacterial membrane”. The mortality percentage in data set [5] is reported as 9.2%.

As to “hBD-3: human defensin hBD-3 (PeptaNova), positive control (GIINTLQKYYCRVRGGRCAVLSCLPKEEQIGKCSTRGRKCCRRKK; ends and bridges not checked; cysteine pairing not given here; UniProt P81534 23-67, looked up)”, the “ultrastructural damage, transmission electron microscopy” value in data set [2] was “malformations (4) and lysis of the membrane”. The “percentage of dead cells (cytotoxicity)” value in data set [3] was “around 70%”. Moreover, in data set [4], the “biofilm formation, scanning electron microscopy” value is on record as “did not form a biofilm”; the “morphological alterations, scanning electron microscopy” value is “structural damage and lysis of the membrane”.
